Data as given in PubChem BioAssay (NCI).
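Step 1: Grow cells in 96-well plates. Step 2: Expose to compound for 48 hours at 5 concentrations. Step 3: Interpolate endpoints linearly; if unreached, use highest concentration. GI50 marks 50% less growth. At the TGI there is no net growth.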

How the values were obtained:
Assay in all cases: NCI tumour cell line growth inhibition, 48 h
[1] = tested on: SF-295 CNS
[2] = tested on: DU-145 prostate
[3] = tested on: M14 melanoma
[4] = tested on: OVCAR-5 ovarian
[5] = tested on: OVCAR-3 ovarian
[6] = tested on: NCI-H226 lung
[7] = tested on: MDA-MB-231 breast
[8] = tested on: SNB-75 CNS
[9] = tested on: A498 renal
[10] = tested on: HCC-2998 colon
[11] = tested on: NCI-H460 lung
[12] = tested on: MALME-3M melanoma
[13] = tested on: SW-620 colon
[14] = tested on: TK-10 renal
[15] = tested on: SF-539 CNS
[16] = tested on: SK-MEL-2 melanoma
[17] = tested on: HS 578T breast
[18] = tested on: OVCAR-4 ovarian
[19] = tested on: SF-268 CNS
[20] = tested on: KM12 colon
[21] = tested on: IGROV1 ovarian
[22] = tested on: SR leukemia
[23] = tested on: SK-OV-3 ovarian
[24] = tested on: T-47D breast
[25] = tested on: HCT-15 colon
[26] = tested on: UACC-257 melanoma
[27] = tested on: UACC-62 melanoma
[28] = tested on: HT29 colon
[29] = tested on: MCF7 breast
[30] = tested on: UO-31 renal
[31] = tested on: HOP-62 NSCLC
[32] = tested on: MDA-MB-468 breast
[33] = tested on: ACHN renal
[34] = tested on: NCI-H23 lung
[35] = tested on: MOLT-4 leukemia
[36] = tested on: LOX IMVI melanoma
[37] = tested on: CCRF-CEM leukemia
[38] = tested on: CAKI-1 renal
[39] = tested on: EKVX NSCLC
[40] = tested on: COLO 205 colon
[41] = tested on: SK-MEL-28 melanoma
[42] = tested on: K-562 leukemia
[43] = tested on: 786-0 renal
[44] = tested on: RPMI-8226 leukemia
[45] = tested on: HL-60(TB) leukemia
[46] = tested on: NCI/ADR-RES ovarian
[47] = tested on: HOP-92 NSCLC
[48] = tested on: SK-MEL-5 melanoma
[49] = tested on: HCT-116 colon
[50] = tested on: MDA-MB-435
[51] = tested on: U251 CNS
[52] = tested on: A549 NSCLC
[53] = tested on: BT-549 breast
[54] = tested on: SN12C renal
[55] = tested on: PC-3 prostate
[56] = tested on: NCI-H522 lung
[57] = tested on: SNB-19 CNS
[58] = tested on: OVCAR-8 ovarian

Structure (SMILES): Cc1oc(-c2ccccc2)nc1CN[C@@H]1C[C@@H]2C[C@H]([C@H]1C)C2(C)C
- GI50 [1]: 15.6 µM
- TGI [1]: 29.1 µM
- GI50 [2]: 10.1 µM
- TGI [2]: 21.8 µM
- GI50 [3]: 2.21 µM
- TGI [3]: 5.78 µM
- GI50 [4]: 7.9 µM
- TGI [4]: 20.6 µM
- GI50 [5]: 12.7 µM
- TGI [5]: 25.6 µM
- GI50 [6]: 8.99 µM
- TGI [6]: 25 µM
- GI50 [7]: 4.56 µM
- TGI [7]: 16.9 µM
- GI50 [8]: 13.2 µM
- TGI [8]: 26.6 µM
- GI50 [9]: 13.5 µM
- TGI [9]: 26.8 µM
- GI50 [10]: 4.22 µM
- TGI [10]: 16.6 µM
- GI50 [11]: 6.32 µM
- TGI [11]: 20.3 µM
- GI50 [12]: 2.87 µM
- TGI [12]: 13.6 µM
- GI50 [13]: 11.4 µM
- TGI [13]: 24.5 µM
- GI50 [14]: 15.4 µM
- TGI [14]: 31.5 µM
- GI50 [15]: 12.5 µM
- TGI [15]: 25 µM
- GI50 [16]: 14.5 µM
- TGI [16]: 28.4 µM
- GI50 [17]: 11.9 µM
- TGI [17]: 30.5 µM
- GI50 [18]: 11.4 µM
- TGI [18]: 25.8 µM
- GI50 [19]: 11.6 µM
- TGI [19]: 25.7 µM
- GI50 [20]: 9.49 µM
- TGI [20]: 21.8 µM
- GI50 [21]: 10.1 µM
- TGI [21]: 22.1 µM
- GI50 [22]: 10.6 µM
- TGI [22]: 36.7 µM
- GI50 [23]: 16.8 µM
- TGI [23]: 32.3 µM
- GI50 [24]: 4.42 µM
- TGI [24]: 21.4 µM
- GI50 [25]: 3.85 µM
- TGI [25]: 15.5 µM
- GI50 [26]: 7.95 µM
- TGI [26]: 21.4 µM
- GI50 [27]: 12.5 µM
- TGI [27]: 25 µM
- GI50 [28]: 3.39 µM
- TGI [28]: 15 µM
- GI50 [29]: 7.06 µM
- TGI [29]: 21.4 µM
- GI50 [30]: 4.65 µM
- TGI [30]: 18.8 µM
- GI50 [31]: 14.2 µM
- TGI [31]: 32.4 µM
- GI50 [32]: 2.13 µM
- TGI [32]: 8.29 µM
- GI50 [33]: 13.7 µM
- TGI [33]: 26.5 µM
- GI50 [34]: 12.8 µM
- TGI [34]: 25.9 µM
- GI50 [35]: 16.6 µM
- TGI [35]: 45.9 µM
- GI50 [36]: 5.17 µM
- TGI [36]: 18.1 µM
- GI50 [37]: 18.9 µM
- TGI [37]: 48.6 µM
- GI50 [38]: 13.3 µM
- TGI [38]: 26.1 µM
- GI50 [39]: 11.2 µM
- TGI [39]: 23.3 µM
- GI50 [40]: 2.11 µM
- TGI [40]: 5.3 µM
- GI50 [41]: 7.59 µM
- TGI [41]: 20.3 µM
- GI50 [42]: 3.63 µM
- TGI [42]: > 100 µM
- GI50 [43]: 5.64 µM
- TGI [43]: 21.1 µM
- GI50 [44]: 3.82 µM
- TGI [44]: 19.2 µM
- GI50 [45]: 18 µM
- TGI [45]: 37.7 µM
- GI50 [46]: 12.7 µM
- TGI [46]: 25.5 µM
- GI50 [47]: 1.49 µM
- TGI [47]: 12.6 µM
- GI50 [48]: 3.32 µM
- TGI [48]: 11.9 µM
- GI50 [49]: 4.3 µM
- TGI [49]: 18.3 µM
- GI50 [50]: 13.3 µM
- TGI [50]: 26.5 µM
- GI50 [51]: 7.61 µM
- TGI [51]: 22.8 µM
- GI50 [52]: 14 µM
- TGI [52]: 33.6 µM
- GI50 [53]: 4.94 µM
- TGI [53]: 19.1 µM
- GI50 [54]: 10.5 µM
- TGI [54]: 22.5 µM
- GI50 [55]: 7.17 µM
- TGI [55]: 23.1 µM
- GI50 [56]: 12.7 µM
- TGI [56]: 28.4 µM
- GI50 [57]: 14.2 µM
- TGI [57]: 27.3 µM
- GI50 [58]: 14.1 µM
- TGI [58]: 31.8 µM
